Test results as given in patent publication US20130316015A1, “Methods for Repairing Cartilage” (MOUNT SINAI HOSPITAL, priority 2011, published 2013).

Tested on: full thickness chondrocytes
Experiment: In vitro-formed cartilage on membrane inserts: DNA, GAG and collagen contents
Format: cell-based, calves
Procedure: Membrane inserts (Millicell-CM®, Millipore Corp., Bedford, Mass., USA) were coated with type II collagen (0.5 mg/ml in 0.1N acetic acid; Sigma Chemical Co., St. Louis, Mo., USA) and dried overnight. The membrane inserts were UV sterilized for 30 minutes and soaked in Ham's F12 for 30 minutes prior to cell culturing.
Cartilage was aseptically excised from the full thickness of metacarpal-phalangeal articular cartilage from 9 to 12 months old calves within 24 hours of death as previously described. For the experiment investigating the response of chondrocytes zonal subpopulations to inorganic polyphosphate, cartilage was excised as the superficial-mid zone (top 70%) and the deep-zone (bottom 30%). Chondrocytes were harvested from the tissue by sequential enzymatic digestion (0.5% protease (Sigma Chemical Co., St. Louis, Mo., USA) for 2 hours followed by 0.1% collagenase (Roche Diagnostics GmbH, Mannheim, Germany) overnight). The cells were then seeded on top of membrane inserts (1×10^6 cells per construct) in Ham's F-12 supplemented with 5% fetal bovine serum (FBS) (HyClone, Logan, Utah, USA) and incubated at 37° C. in an atmosphere characterized by 95% relative humidity and 5% CO2. On day 5, the serum concentration was changed to 20% and supplemented with ascorbic acid (100 μg/ml, Sigma Chemical Co., St. Louis, Mo., USA). At this time, cultures were incubated in the presence or absence of various concentrations of sodium phosphate glasses (inorganic polyphosphate; Sigma Chemical Co., St. Louis, Mo., USA) or sodium phosphate buffer. The concentrations of inorganic polyphosphate utilized for each experiment are calculated based on the phosphate content. Cultures were grown for up to 4 weeks following initiation of the inorganic polyphosphate treatment. […]
In vitro and ex vivo-cultured cartilage tissues were harvested and washed twice in PBS. […] The fluorescence was visualized with a Zeiss Axioplan epifluorescence microscope using a wide pass DAPI filter. […]
Cartilage tissues were digested with papain (Sigma Chemical Co., St. Louis, Mo., USA; 40 μg·ml^−1) in digestion buffer (20 mM ammonium acetate, 1 mM EDTA and 2 mM DTT) for 48 hours at 65° C. […] The DNA content was assessed using the Hoechst 33258 dye (Polysciences Inc., Washington, Pa., USA) binding assay and fluorometry (emission wavelength: 458 nm; excitation wavelength: 365 nm). […]
The proteoglycan and collagen contents of cartilage tissues were also measured from aliquots of the papain digest. The proteoglycan content was estimated by quantifying the amount of sulphated GAG using the dimethylmethylene blue dye (Polysciences Inc., Washington, Pa., USA) binding assay and quantifying the colour spectrophotometrically at 525 nm. […] The collagen content was estimated by quantifying the hydroxyproline. […]

[1] = 1 mM, 2 weeks in culture, normalized to DNA content, mean ± SEM

Question: What does the source list for O=P(O)(O)O [Phosphate, sodium phosphate]?
Answer: DNA Content (1 mM, 2 weeks in culture, mean ± SEM): 8.5 ± 0.92 µg; Collagen Content [1]: 105.3 ± 9.5 % of control; GAG Content [1]: 112.5 ± 14.8 % of control; DNA, GAG and collagen contents compared to non-supplemented medium (concentrations equivalent to those used for polyphosphate, 2 weeks): did not significantly alter
